According to patent publication US9072729B2, “Method for treating fibrosis and cancer with imidazolium and imidazolinium compounds” (Agency for Science, Technology and Research, priority 2008, dated 2015):

How the values were obtained:
HLE cells [1] = test: HLE cell proliferation assay (cell count, BrdU; HCS); format: cell-based, human; conditions: 0-1.25 mM, 48 h
Protocol: FIG. 21. DBZIM inhibited cell proliferation and disrupted cell cycle in HLE cells (A). DBZIM inhibited HCC cell proliferation. HLE cells were seeded at a density of 5000 cells/well in 96-well plate, and cultured for 18-24 h in 10% […] DMEM before the addition of various compounds (0-1.25 mM) in 10% FBS DMEM for 48 h of proliferation before assaying. Cell count was calculated based on Hoechst dye staining and BrdU incorporation was based on the total fluorescence intensity of antibody staining. (B). DBZIM arrested HCC cells at G0/G1 phase. HLE cells were incubated with DBZIM (0, 1, 3 mM) for 24 hr before fixation and DAPI staining for DNA content (2N vs. 4N) determination.
HLE cells were grown, treated by compounds in 6 replicates for 48 hr in a 96-well plate. Cells were then fixed by using 4% paraformaldehyde and stained by DAPI and BrdU antibody using Hitkit (Thermo Scientific, IL, USA). Cells were imaged and analyzed on ArrayScan VTI HCS reader (Thermal Scientific, PA, USA). Cell numbers were counted based on nuclear staining and BrdU incorporation was determined and expressed as percentage of positively stained cells.
The effect of DBZIM on the HCC cell proliferation and cell cycle was characterized on a high-content screening (HCS) platform. Under each concentration, at lease 1000 cells were analyzed. […]

HLE cells [2] = test: Annexin V staining and flow cytometry, HLE; format: cell-based, human; conditions: 24 hr, TRAIL 100 ng/ml
Protocol: FIG. 22. […] HLE or HepG2 cells were incubated with DBZIM of various concentrations for 6 hr, and assayed for caspase 3/7 activity and LDH releasing (expressed as % toxicity). DBZIM induced apoptosis as characterized by annexin V staining using flow cytometer in HLE (E) and HepG2 (F). Scatter plot and histogram gave the representative information on the cell population distribution while bar graphs quantified the percentage of apoptotic cells from the histogram. HLE and HepG2 cells were treated by DBZIM of various concentrations for 24 hr before harvesting for annexin V staining and flow cytometric analysis.
HLE and HepG2 cells were treated with various concentrations of DBZIM or TRAIL (100 ng/ml) for 24 hr, harvested and labeled with Annexin V-FITC (BioVision, CA, USA). The labeled cells were analysed by flow cytometry FACSCalibur ([…], NJ, USA) and CellQuest software. Cells showing green staining in the plasma membrane were considered as apoptotic cells.

[3] = tested on: caspase 3, 8 and 9 in HLE cells; test: Protein extract based caspase 3/8/9 colorimetric assays; format: cell-based, human; conditions: 24 hr
Protocol: FIG. 23. (A). […] HLE cells were grown in a T75 flask and treated with DBZIM for 24 hr. The cells were then lysed and cytoplasmic protein was collected for assaying caspase 8, 9 and 3 using kits from Biovision. The data was normalized against the vehicle control. (B). […] HLE cells were treated by DBZIM of 1.5 mM for 24 hr. Cytosolic and mitochondria protein fractions were collected using a kit from Biovision. 15 μg of each protein was resolved in 4-12% gradient PAGE-SDS gel. The target proteins were recognized by antibody of cytochrome C, and visualized by the ECL method. The membrane was stripped and probed for the α-tubulin as the loading control for cytosolic fraction and Cox4 for mitochondria fraction.
Capspase 3/8/9 activities were determined using total protein extract as starting material (Biovision Inc., CA, USA). HLE cells were cultured in T75 flask and treated with DBZIM of various concentrations. Cytosolic protein extract was collected by pelleting and lysing the cells and centrifugation to remove the debris. Capspase 3, 8 and 9 activities were assayed using the same protein extract but adding the respective substrate. Absorbance readings were taken at 405 nm using Tecan Safire II plate reader. Results were expressed as relative caspase activity by normalizing to control cells without compound treatment.

U87 MG = test: Proliferation assay (MTS), glioma U87 MG; format: cell-based; conditions: Homo sapiens, U-87 MG, 48 h, determined at day 2
Protocol: FIG. 30. DBZIM inhibited cell proliferation in glioma cell line C6 (A) and U87 MG (C) and induced caspase 3/7 activity in C6 (B) and U87 MG (D). C6 or U87 cells were incubated with DBZIM of various concentrations for 48 hr for proliferation assay and 6 hr for caspase 3/7 activation assay. Proliferation was measured using MTS kit from Promega and expressed as relative cell proliferation with control group was normalized to 1. Caspase 3/7 activity was quantified using a kit from Promega and also expressed as relative caspase 3/7 activity of treated groups over control group.
Proliferation of Glioma cell lines: U87 MG and C6 under the treatment of DBZIM was examined using 3-(4,5-dimethylthiazol-2-yl)-5-(3-carboxymethoxyphenyl)-2-(4-sulfophenyl)-2H-tetrazolium (MTS) based proliferation assay kit (Promega, Wis., USA). MTS reagent was added to the control and treated cells (after 48 hr) directly and the absorbance signal was read at 490 nm using a Tecan Safire II plate reader.

Huh7 cells = test: HCC xenograft model (Huh7 cells in Balb/c nude mice); format: in vivo, mouse; conditions: 2 grams/liter in drinking water, 3 weeks
Protocol: (§1) Balb/c Nude mice, 5-6 weeks old, were inoculated with 1×10^7 Huh7 cells in 0.2 ml volume of Matrigel/DMEM mix. Since not every mouse developed a tumor after the inoculation of HCC cells, only those with visible tumors (about 8 weeks after inoculation) were used for subsequent experiment. The tumor-bearing mice were randomly divided to the control and the treatment group. (n=3), respectively. Mice in the treatment group had free access to drinking water containing DBZIM (2 grams/liter) only, while mice in the control group had free access to Water only. The compound treatment lasted for 3 weeks. The tumor size was measured weekly, and the tumor volume was calculated using the formula: 0.52×width^2×length.
as §1, with “group” for “group.”, “compound 9 (IBN-9) at 0.6 g/l or 1.5 g/l” for “DBZIM (2 grams/liter)”, “water” for “Water”

## [Br-].c1ccc(Cn2cc[n+](Cc3ccccc3)c2)cc1 [DBZIM, 1,3-bisbenzylimidazolium bromide]
HLE cells [1]
  HLE cell proliferation (total cell number, BrdU positive cells): inhibited the HLE cell proliferation
HLE cells [2]
  apoptosis (annexin V staining): dose-dependently induced apoptosis
[3]
  caspase 3 activity: dose-dependently enhanced
  caspase 8 activity: not affected
  caspase 9 activity: dose-dependently enhanced
U87 MG
  IC50: 2.1 mM
Huh7 cells
  decrease of body weight: 17%
  reduction of tumor volume: 40%
